Results as given in patent US20250296938A1, “Compounds that Interact with the Ras Superfamily for the Treatment of Cancers, Inflammatory Diseases, Rasopathies, and Fibrotic Disease” (SHY Therapeutics, LLC, priority 2018, published 2025).
Like-named read-outs stand apart in the source and are kept apart here.

What was measured:
Assay in all cases: Ras GTP binding domain inhibition assay (Cy3-GTP/Cy5-GTP competition)
KRas G12D mutant = molecular target: T1, KRas G12D mutant (Homo sapiens, UniProt P01116, G12D); conditions: for IC50: cell-free, 100 nM Cy3-GTP or Cy5-GTP
T1 construct: fused on or other part: His tag, used for capture on nickel-coated plates
Method: (§1) The following method was developed as specific assay for the following proteins: KRas wild type, KRas Q61H mutant, KRas G12C mutant, KRas G12D mutant, HRas wild type, Rac-1, and Rho-A.
(§2) • 25 mM Tris-HCl, pH 7.4 • 27 mM KCl • 137 mM NaCl • 1 mM MgCl2 • 1 mM DTT
(§3) • 50 mM Tris-HCl, pH 7.0 • 1 mM MgCl2 • 1 mM DTT
(§4) The small GTPases proteins: KRas wild type. KRas Q61H mutant, KRas G12C mutant, KRas G12D mutants, HRas wild type, Rac-1, and Rho-A were expressed as His-tagged proteins. In addition, the Guanosine nucleotide Exchange Factor (GEF) Sos protein (residues 556-1049) was expressed as a His-tagged protein. In cells, the guanine nucleotide exchange factor Sos protein promotes activation of Ras proteins by stimulating an exchange of GDP for GTP. The inclusion of Sos to the Ras GTP binding domain inhibition assay may be considered as an alternative representation of physiological cellular conditions for evaluating the inhibitory activity of some of the tested small molecules.
(§5) For the assay, all purified small GTPases proteins were diluted in Buffer-I or Buffer-II to a final concentration of 10-30 μg/mL. 200 μL of each diluted protein was added to a nickel-coated 96-well plate and incubated overnight at 4° C. Then the protein solution was discarded and 200 μL of Buffer-I or Buffer-II was added to each well in the presence of 1% DMSO. Compounds to be tested were added to the protein-coated wells at final concentration of 20 μM, and incubated for 3 hours at room temperature with and without […] of Sos added to the final hour of the incubation. When performing IC50 measurements a serial dilution of all tested concentrations was added. Then Cy3-GTP or Cy5-GTP was added to each well to a final concentration of 100 nM. The labeled GTP was incubated for 45 minutes at room temperature. Following GTP incubation, wells were washed 3× in Buffer-I or Buffer-II and 200 μL of Buffer-I or Buffer-II was added to each well. Following washes, the amount of bound labeled-GTP was measured using a SpectraMax M3 (Molecular Devices).

KRas Q61H mutant = system: KRas Q61H mutant; design: species or system human; conditions: 20 μM; for KRas Q61H mutant + SOS: % inh.: with SOS (Table 7A); for KRas Q61H mutant: % inh.: without SOS (Table 7A)
Method: as §1, §2, §3, §4, §5

KRas wild type = system: KRas wild type; design: species or system human; conditions: 20 μM; for KRas wild type + SOS: % inh.: with SOS (Table 7A); for KRas wild type % inh.: without SOS (Table 7A)
Method: as §1, §2, §3, §4, §5

[1] = at 20 μM, with SOS, read-out: KRas G12D mutant + SOS: % inh.
[2] = at 20 μM, without SOS, read-out: KRas G12D mutant: % inh.
[3] = 20 μM, with SOS (Table 7A), read-out: KRas G12D mutant + SOS: % inh.
[4] = 20 μM, without SOS (Table 7A), read-out: KRas G12D mutant: % inh.

COC1CCN(C(=O)c2sc3nc(-c4nccn4C)nc(N[C@H]4C[C@@H](OC)C4)c3c2C2=CC=CCC=C2)C1 (stereo partly shown)
IC50 (KRas G12D mutant): 5 to 10 µM

COc1cccc(-c2sc3nc(-c4nccn4C)nc(N[C@@H]4CC[C@H](C=O)C4)c3c2-c2ccccc2)c1F (racemic)
inhibition at 20 µM (KRas G12D mutant; [1]): 51 to 75% | inhibition at 20 µM (KRas G12D mutant; [2]): 51 to 75%

COc1cccc(-c2sc3nc(-c4nccn4C)nc(N[C@@H]4CC[C@H](OC)C4)c3c2-c2ccccc2)c1F [drawing 884]
inhibition at 20 µM (KRas G12D mutant; [3]): 51 to 75% | inhibition at 20 µM (KRas G12D mutant; [4]): 51 to 75% | KRas Q61H mutant + SOS: % inh. (KRas Q61H mutant): D (76-100% inhibition) | KRas Q61H mutant: % inh. (KRas Q61H mutant): C (51-75% inhibition) | KRas wild type + SOS: % inh. (KRas wild type): D (76-100% inhibition) | KRas wild type % inh. (KRas wild type): C (51-75% inhibition)

COc1c(F)cccc1-c1sc2nc(-c3nccn3C)nc(N[C@@H]3CC[C@H](OC)C3)c2c1-c1ccccc1 [drawing 887]
inhibition at 20 µM (KRas G12D mutant; [3]): 76 to 100% | inhibition at 20 µM (KRas G12D mutant; [4]): 76 to 100% | KRas Q61H mutant + SOS: % inh. (KRas Q61H mutant): D (76-100% inhibition) | KRas Q61H mutant: % inh. (KRas Q61H mutant): D (76-100% inhibition) | KRas wild type + SOS: % inh. (KRas wild type): D (76-100% inhibition) | KRas wild type % inh. (KRas wild type): D (76-100% inhibition)

COc1c(F)cccc1-c1sc2nc(-c3nccn3C)nc(N[C@@H]3CC[C@H](OC)C3)c2c1-c1ccccc1 [drawing 1022]
inhibition at 20 µM (KRas G12D mutant; [1]): 76 to 100% | inhibition at 20 µM (KRas G12D mutant; [2]): 76 to 100%

CO[C@H]1CC[C@@H](Nc2nc(-c3nccn3C)nc3sc(-c4cccc5[nH]ncc45)c(-c4ccccc4)c23)C1 [drawing 1024]
inhibition at 20 µM (KRas G12D mutant; [1]): 51 to 75% | inhibition at 20 µM (KRas G12D mutant; [2]): 51 to 75%

COc1cccc(-c2sc3nc(-c4nccn4C)nc(N[C@@H]4CC[C@H](OC)C4)c3c2C)c1F [drawing 1029]
inhibition at 20 µM (KRas G12D mutant; [1]): 51 to 75% | inhibition at 20 µM (KRas G12D mutant; [2]): 51 to 75%

COc1cccc(-c2sc3nc(-c4nc(C)cn4C)nc(N[C@@H]4CC[C@H](OC)C4)c3c2C)c1F [drawing 1031]
inhibition at 20 µM (KRas G12D mutant; [1]): 26 to 50% | inhibition at 20 µM (KRas G12D mutant; [2]): 1 to 25%

CO[C@H]1CC[C@@H](Nc2nc(-c3nc(C)cn3C)nc3sc(-c4cccc5[nH]ncc45)c(C)c23)C1 [drawing 1032]
inhibition at 20 µM (KRas G12D mutant; [1]): 26 to 50% | inhibition at 20 µM (KRas G12D mutant; [2]): 26 to 50%

CO[C@H]1CC[C@@H](Nc2nc(-c3nccn3C)nc3sc(-c4ccn(C(C)C)n4)c(C4=CC=CCC=C4)c23)C1 [drawing 1063]
IC50 (KRas G12D mutant): 1 to 4.99 µM

Cc1c(-c2ccn(C)n2)sc2nc(-c3nccn3C)nc(NCCCS(C)(=O)=O)c12 [drawing 1064]
IC50 (KRas G12D mutant): 5 to 10 µM

Cc1c(-c2ccn(C)n2)sc2nc(-c3nccn3C)nc(NCCCC(=O)N(C)C)c12 [drawing 1065]
IC50 (KRas G12D mutant): 5 to 10 µM

Cc1c(-c2ccn(C)n2)sc2nc(-c3nccn3C)nc(NCCOC(=O)N(C)C)c12 [drawing 1066]
IC50 (KRas G12D mutant): 5 to 10 µM

CO[C@H]1CC[C@@H](Nc2nc(-c3nccn3C)nc3sc(-c4ccn(C(C)C)n4)c(C)c23)C1 [drawing 1067]
IC50 (KRas G12D mutant): 5 to 10 µM

CO[C@H]1C[C@@H](Nc2nc(-c3nccn3C)nc3sc(C(=O)NC(C)C)c(-c4ccccc4)c23)C1 [drawing 1068]
IC50 (KRas G12D mutant): 5 to 10 µM

COCCNC(=O)c1sc2nc(-c3nccn3C)nc(N[C@H]3C[C@@H](OC)C3)c2c1-c1ccccc1 [drawing 1069]
IC50 (KRas G12D mutant): 5 to 10 µM

CO[C@H]1C[C@@H](Nc2nc(-c3nccn3C)nc3sc(C(=O)N4CCOCC4)c(-c4ccccc4)c23)C1 [drawing 1070]
IC50 (KRas G12D mutant): 5 to 10 µM

CO[C@H]1CC[C@@H](Nc2nc(-c3nccn3C)nc3sc(C(=O)NC(C)C)c(-c4ccccc4)c23)C1 [drawing 1072]
IC50 (KRas G12D mutant): 5 to 10 µM

COCCNC(=O)c1sc2nc(-c3nccn3C)nc(N[C@@H]3CC[C@H](OC)C3)c2c1-c1ccccc1 [drawing 1073]
IC50 (KRas G12D mutant): 5 to 10 µM

CO[C@H]1CC[C@@H](Nc2nc(-c3nccn3C)nc3sc(C(=O)N4CCCC4)c(-c4ccccc4)c23)C1 [drawing 1074]
IC50 (KRas G12D mutant): 5 to 10 µM

CO[C@H]1CC[C@@H](Nc2nc(-c3nccn3C)nc3sc(C(=O)N4CCOCC4)c(-c4ccccc4)c23)C1 [drawing 1075]
IC50 (KRas G12D mutant): 5 to 10 µM
